Consider 3 compounds from patent US20190345150A1, “MICROBIOCIDAL OXADIAZOLE DERIVATIVES” (SYNGENTA PARTICIPATIONS AG, priority 2016, published 2019).

Structures are written as SMILES.

Data set [1] deals with Glomerella laqenarium (Colletotrichum laqenarium). As to the kind of experiment: Glomerella lagenarium liquid culture / cucumber / preventative (anthracnose). The conditions noted are these: 20 ppm in the applied formulation, liquid culture in PDB, growth inhibition measured photometrically 3 to 4 days after application, compared to untreated control, read-out: disease control. It is filed as cell-based. The protocol:
Mycelia fragments or conidia suspensions of a fungus prepared either freshly from liquid cultures of the fungus or from cryogenic storage, are directly mixed into nutrient broth. DMSO solutions of the test compound (max. 10 mg/ml) are diluted with 0.025% Tween20 by a factor of 50 and 10 μl of this solution is pipetted into a microtiter plate (96-well format). The nutrient broth containing the fungal spores/mycelia fragments is then added to give an end concentration of the tested compound. The test plates are incubated in the dark at 24° C. and 96% relative humidity. The inhibition of fungal growth is determined photometrically after 2 to 7 days, depending on the pathosystem, and percent antifungal activity relative to the untreated check is calculated. Conidia of the fungus from cryogenic storage are directly mixed into nutrient broth (PDB—potato dextrose broth). After placing a (DMSO) solution of test compound into a microtiter plate (96-well format), the nutrient broth containing the fungal spores is added. The test plates are incubated at 24° C. and the inhibition of growth is measured photometrically 3 to 4 days after application.

The test system of data set [2] is Puccinia recondita f. Sp. Tritici. As to the kind of experiment: Puccinia recondita f. sp. tritici / wheat / leaf disc preventative (brown rust). It is filed as in vivo. The note with it: foliar, 200 ppm in the applied formulation, wheat leaf segments cv. Kanzler, preventative (inoculated 1 day after application), compared to untreated control, read-out: disease control. The procedure: Leaf disks or leaf segments of various plant species are cut from plants grown in a greenhouse. The cut leaf disks or segments are placed in multiwell plates (24-well format) onto water agar. The leaf disks are sprayed with a test solution before (preventative) or after (curative) inoculation. Compounds to be tested are prepared as DMSO solutions (max. 10 mg/ml) which are diluted to the appropriate concentration with 0.025% Tween20 just before spraying. The inoculated leaf disks or segments are incubated under defined conditions (temperature, relative humidity, light, etc.) according to the respective test system. A single evaluation of disease level is carried out 3 to 14 days after inoculation, depending on the pathosystem. Percent disease control relative to the untreated check leaf disks or segments is then calculated. Wheat leaf segments cv. Kanzler were placed on agar in multiwell plates (24-well format) and sprayed with the formulated test compound diluted in water. The leaf disks were inoculated with a spore suspension of the fungus 1 day after application. The inoculated leaf segments were incubated at 19° C. and 75% relative humidity (rh) under a light regime of 12 hours light/12 hours darkness in a climate cabinet and the activity of a compound was assessed as percent disease control compared to untreated when an appropriate level of disease damage appears in untreated check leaf segments (7 to 9 days after application).

Data set [3] shares this test system. As to the kind of experiment: Puccinia recondita f. sp. tritici / wheat / leaf disc curative (brown rust). The data set is classed as in vivo. The conditions noted are these: foliar, 24 h, 200 ppm in the applied formulation, wheat leaf segments cv. Kanzler, curative (applied 1 day after inoculation), compared to untreated control, read-out: disease control. The protocol:
Leaf disks or leaf segments of various plant species are cut from plants grown in a greenhouse. The cut leaf disks or segments are placed in multiwell plates (24-well format) onto water agar. The leaf disks are sprayed with a test solution before (preventative) or after (curative) inoculation. Compounds to be tested are prepared as DMSO solutions (max. 10 mg/ml) which are diluted to the appropriate concentration with 0.025% Tween20 just before spraying. The inoculated leaf disks or segments are incubated under defined conditions (temperature, relative humidity, light, etc.) according to the respective test system. A single evaluation of disease level is carried out 3 to 14 days after inoculation, depending on the pathosystem. Percent disease control relative to the untreated check leaf disks or segments is then calculated. Wheat leaf segments cv. Kanzler are placed on agar in multiwell plates (24-well format). The leaf segments are then inoculated with a spore suspension of the fungus. Plates were stored in darkness at 19° C. and 75% relative humidity. The formulated test compound diluted in water was applied 1 day after inoculation. The leaf segments were incubated at 19° C. and 75% relative humidity under a light regime of 12 hours light/12 hours darkness in a climate cabinet and the activity of a compound was assessed as percent disease control compared to untreated when an appropriate level of disease damage appears in untreated check leaf segments (6 to 8 days after application).

Another data set deals with Phakopsora pachyrhizi. As to the kind of experiment: Phakopsora pachyrhizi / soybean / leaf disc preventative (Asian soybean rust). The data set is classed as in vivo. The conditions noted are these: foliar, 200 ppm in the applied formulation, soybean leaf disks, preventative (inoculated 1 day after application), compared to untreated control, read-out: disease control. The procedure:
Leaf disks or leaf segments of various plant species are cut from plants grown in a greenhouse. The cut leaf disks or segments are placed in multiwell plates (24-well format) onto water agar. The leaf disks are sprayed with a test solution before (preventative) or after (curative) inoculation. Compounds to be tested are prepared as DMSO solutions (max. 10 mg/ml) which are diluted to the appropriate concentration with 0.025% Tween20 just before spraying. The inoculated leaf disks or segments are incubated under defined conditions (temperature, relative humidity, light, etc.) according to the respective test system. A single evaluation of disease level is carried out 3 to 14 days after inoculation, depending on the pathosystem. Percent disease control relative to the untreated check leaf disks or segments is then calculated. Soybean leaf disks are placed on water agar in multiwell plates (24-well format) and sprayed with the formulated test compound diluted in water. One day after application leaf discs are inoculated by spraying a spore suspension on the lower leaf surface. After an incubation period in a climate cabinet of 24-36 hours in darkness at 20° C. and 75% rh leaf disc are kept at 20° C. with 12 h light/day and 75% rh. The activity of a compound is assessed as percent disease control compared to untreated when an appropriate level of disease damage appears in untreated check leaf disks (12 to 14 days after application).

Consider `CC(Oc1nnnn1C)c1ccc(-c2noc(C(F)(F)F)n2)cc1` (stereo not drawn) [Compound 1.22, 3-[4-[1-(1-methyltetrazol-5-yl)oxyethyl]phenyl]-5-(trifluoromethyl)-1,2,4-oxadiazole], for which the melting point (in general, the temperature of the solid-liquid transition) is 104 to 106 °C. The inhibition of growth at 20 ppm in data set [1] is ≥ 80%. The pest or weed control at 200 ppm in data set [2] was ≥ 80%. Besides, in data set [3], the pest or weed control at 200 ppm was ≥ 80%. Besides, in the data set with Phakopsora pachyrhizi, the pest or weed control at 200 ppm was ≥ 80%.

`CN(C)C(=O)OCc1ccc(-c2noc(C(F)(F)F)n2)cc1` [Compound 3.1, [4-[5-(trifluoromethyl)-1,2,4-oxadiazol-3-yl]phenyl]methyl N,N-dimethylcarbamate] yielded a melting point of 95 to 97 °C. Moreover, in data set [1], the inhibition of growth at 20 ppm is ≥ 80%. In addition, the pest or weed control at 200 ppm in data set [2] is ≥ 80%. In data set [3], the pest or weed control at 200 ppm is ≥ 80%. For the same compound, in the data set on Phakopsora pachyrhizi, the pest or weed control at 200 ppm was ≥ 80%.

For `C/C(=N/OCc1ccc(-c2noc(C(F)(F)F)n2)cc1)n1ccnc1` [Compound 4.2, (Z)-1-imidazol-1-yl-N-[[4-[5-(trifluoromethyl)-1,2,4-oxadiazol-3-yl]phenyl]methoxy]ethanimine], the melting point is 51 to 53 °C. Also, in data set [1], the inhibition of growth at 20 ppm was ≥ 80%. For the same compound, the pest or weed control at 200 ppm in data set [2] is ≥ 80%. Moreover, the pest or weed control at 200 ppm in data set [3] was ≥ 80%. Moreover, in the data set with Phakopsora pachyrhizi, the pest or weed control at 200 ppm is ≥ 80%.
